Source: patent publication US10301267B2, “Compounds” (AstraZeneca AB, priority 2006, dated 2019)

Target: FGFR1 active kinase (Homo sapiens, UniProt P11362)
Assay: FGFR Kinase assay - Caliper Echo Dosing
Format: biochemical
Settings: FGFR1 7.2 nM, 408 uM ATP, acoustic dosing; geometric mean of n
Experimental: FGFR Kinase Assay—Caliper Echo Dosing
To determine inhibition of FGFR activity, kinase assays were conducted using Caliper technology.
Kinase activity assays were performed in Greiner 384-well low volume plates, with a total reaction volume of 12 ul per well. Final concentration of FGFR1 active kinase in each reaction well was 7.2 nM. The substrate for each assay was a custom peptide with fluorescent tag (13 amino acids in length, […] with the fluorescene tag on the first K).
Compounds were dispensed directly in to assay plates using a Labcyte Echo 550 acoustic droplet ejection unit. Each well received 120 nl of DMSO containing compound such that the final concentration of compound in the assay prior to the addition of the stop solution ranged between 30 uM and 30 pM. In addition to compounds each plate carried maximum and minimum control wells, the max wells contained 120 nl of DMSO and the min wells contained 120 nl of 10 mM staurosporine (LC Laboratories, MA 01801, USA Catalogue No. S-9300). The Enzyme (at 7.2 nM [final]) and Substrate (at 3.6 uM [final]) were added separately to the compound plates, in reaction buffer [comprising: 50 mM MOPS (Sigma, Catalogue No. M1254)—pH 6.5, 0.004% Triton (Sigma, Catalogue No. X-100), 2.4 mM DTT, 12 mM MgCl2, 408 uM ATP] resulting in a final DMSO concentration in the reaction mix of 1%.
Assay plates were incubated at room temperature for 1.5 h, before the reaction was stopped with the addition of buffer [comprising: 100 mM HEPES—pH7.5, 0.033% Brij-35 (Sigma Catalogue No. B4184), 0.22% Caliper Coating Reagent #3 (Caliper Life Sciences Catalogue No. 760050), 88 mM EDTA, 5% DMSO]. Stopped assay plates were then read using the Caliper LabChip® LC3000 (which uses microfludics to measure a shift in mobility between fluorescent labelled peptide and the FGFR1 kinase—phosphorylated form of this peptide).
In the assay, compounds were tested at a range of concentrations. […] Percentage inhibition at 1 uM, as expressed herein, is a calculated value based on the curve fit that was generated experimentally. From the fitted curve plot, the effect of compound at a concentration of 1 uM was calculated as a percentage inhibition. The IC50 is the concentration of compound, which inhibits FGFR1 kinase activity by 50% in the context of this assay. This value is calculated using a standard curve fitting software package Origin™.

FGFR1 active kinase, sequence (P11362 22-822): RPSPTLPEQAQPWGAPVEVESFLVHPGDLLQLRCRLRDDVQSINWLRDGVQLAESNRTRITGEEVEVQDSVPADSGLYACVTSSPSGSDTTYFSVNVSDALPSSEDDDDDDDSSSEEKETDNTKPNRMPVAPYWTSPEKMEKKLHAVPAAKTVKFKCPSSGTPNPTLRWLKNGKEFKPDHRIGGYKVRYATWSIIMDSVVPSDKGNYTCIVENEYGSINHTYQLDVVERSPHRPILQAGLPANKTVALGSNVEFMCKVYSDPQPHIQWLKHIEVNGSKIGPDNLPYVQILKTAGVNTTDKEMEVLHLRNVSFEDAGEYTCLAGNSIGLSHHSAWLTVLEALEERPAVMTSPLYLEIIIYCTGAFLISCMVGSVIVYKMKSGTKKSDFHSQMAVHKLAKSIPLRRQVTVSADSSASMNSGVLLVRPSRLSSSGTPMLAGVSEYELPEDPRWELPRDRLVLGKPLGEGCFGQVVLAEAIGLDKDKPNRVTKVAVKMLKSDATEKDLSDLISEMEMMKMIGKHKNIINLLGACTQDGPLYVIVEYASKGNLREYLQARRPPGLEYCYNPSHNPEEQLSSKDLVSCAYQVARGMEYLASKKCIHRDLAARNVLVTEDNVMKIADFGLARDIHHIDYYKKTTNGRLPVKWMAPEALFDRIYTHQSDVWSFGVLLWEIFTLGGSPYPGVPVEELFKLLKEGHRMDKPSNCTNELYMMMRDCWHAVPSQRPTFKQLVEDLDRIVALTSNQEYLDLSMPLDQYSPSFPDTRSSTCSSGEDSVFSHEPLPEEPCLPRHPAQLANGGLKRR

IC50 [nM]	SMILES
130	COc1cc(CCc2cc(NC(=O)c3cnc(N4CCN5CCCCC5C4)cn3)[nH]n2)cc(OC)c1 (stereo not drawn) [Example 105, 5-(1,3,4,6,7,8,9,9a-Octahydropyrido[2,1-c]pyrazin-2-yl)-N-[5-[2-(3,5-dimethoxyphenyl)ethyl]-2H-pyrazol-3-yl]pyrazine-2-carboxamide]
1	COc1cc(CCc2cc(NC(=O)c3ccc(N4CCN(C)CC4)s3)[nH]n2)cc(OC)c1 [Example 106, N-[5-[2-(3,5-dimethoxyphenyl)ethyl]-2H-pyrazol-3-yl]-5-(4-methylpiperazin-1-yl)thiophene-2-carboxamide]
1.1	COc1cc(COc2cc(NC(=O)c3ccc(N4CCN(C)CC4)s3)[nH]n2)cc(OC)c1 [Example 107, N-[5-[(3,5-dimethoxyphenyl)methoxy]-2H-pyrazol-3-yl]-5-(4-methylpiperazin-1-yl)thiophene-2-carboxamide]
2	COc1cc(CCc2cc(NC(=O)c3cnc(N4CCNC(C)(C)C4)cn3)[nH]n2)cc(OC)c1 [Example 108, N-[5-[2-(3,5-dimethoxyphenyl)ethyl]-2H-pyrazol-3-yl]-5-(3,3-dimethylpiperazin-1-yl)pyrazine-2-carboxamide]
3	COc1cc(COc2cc(NC(=O)c3cnc(N4CCN(C5CC5)CC4)cn3)[nH]n2)cc(OC)c1 [Example 109, 5-(4-Cyclopropylpiperazin-1-yl)-N-[5-[(3,5-dimethoxyphenyl)methoxy]-2H-pyrazol-3-yl]pyrazine-2-carboxamide]
0.68	COc1cc(COc2cc(NC(=O)c3ccc(N4C[C@@H](C)N(C)[C@@H](C)C4)cc3)[nH]n2)cc(OC)c1 [Example 110, N-[5-[(3,5-dimethoxyphenyl)methoxy]-2H-pyrazol-3-yl]-4-[(3R,5S)-3,4,5-trimethylpiperazin-1-yl]benzamide]
0.76	COc1cc(COc2cc(NC(=O)c3ccc(N4CCNC(C)(C)C4)cc3)[nH]n2)cc(OC)c1 [Example 111, N-[5-[(3,5-dimethoxyphenyl)methoxy]-2H-pyrazol-3-yl]-4-(3,3-dimethylpiperazin-1-yl)benzamide]
1.7	COc1cc(CCc2cc(NC(=O)c3cnc(N4C[C@@H](C)N[C@@H](C)C4)cn3)[nH]n2)cc(OC)c1 [Example 112, N-[5-[2-(3,5-dimethoxyphenyl)ethyl]-2H-pyrazol-3-yl]-5-[(3R,5S)-3,5-dimethylpiperazin-1-yl]pyrazine-2-carboxamide]
2.3	COc1cc(CCc2cc(NC(=O)c3cnc(N4CCN(C5CC5)CC4)cn3)[nH]n2)cc(OC)c1 [Example 113, 5-(4-Cyclopropylpiperazin-1-yl)-N-[5-[2-(3,5-dimethoxyphenyl)ethyl]-2H-pyrazol-3-yl]pyrazine-2-carboxamide]
1.6	COc1cc(CCc2cc(NC(=O)c3cnc(N4CCN5CCCC5C4)cn3)[nH]n2)cc(OC)c1 (stereo not drawn) [Example 114, 5-(3,4,6,7,8,8a-hexahydro-1H-pyrrolo[2,1-c]pyrazin-2-yl)-N-[5-[2-(3,5-dimethoxyphenyl)ethyl]-2H-pyrazol-3-yl]pyrazine-2-carboxamide]
2.3	COc1cc(COc2cc(NC(=O)c3cnc(N4CCN5CCCCC5C4)cn3)[nH]n2)cc(OC)c1 (stereo not drawn) [Example 115, 5-(1,3,4,6,7,8,9,9a-Octahydropyrido[2,1-c]pyrazin-2-yl)-N-[5-[(3,5-dimethoxyphenyl)methoxy]-2H-pyrazol-3-yl]pyrazine-2-carboxamide]
0.93	COc1cc(COc2cc(NC(=O)c3ccc(N4CCN(C5CC5)CC4)cc3)[nH]n2)cc(OC)c1 [Example 116, 4-(4-cyclopropylpiperazin-1-yl)-N-[5-[(3,5-dimethoxyphenyl)methoxy]-2H-pyrazol-3-yl]benzamide]
1.3	COc1cc(CCc2cc(NC(=O)c3ccc(N4CC[N+](C)([O-])CC4)cc3)[nH]n2)cc(OC)c1 [Example 117, N-[5-[2-(3,5-Dimethoxyphenyl)ethyl]-2H-pyrazol-3-yl]-4-(4-methyl-4-oxidopiperazin-4-ium-1-yl)benzamide]
1.1	COc1cc(COc2cc(NC(=O)c3ccc(N4CCN(C5CCC5)CC4)cc3)[nH]n2)cc(OC)c1 [Example 118, 4-(4-Cyclobutylpiperazin-1-yl)-N-[5-[(3,5-dimethoxyphenyl)methoxy]-2H-pyrazol-3-yl]benzamide]
3.3	COc1cc(COc2cc(NC(=O)c3cnc(N4CCN5CCCCC5C4)nc3)[nH]n2)cc(OC)c1 (stereo not drawn) [Example 119, 2-(1,3,4,6,7,8,9,9a-Octahydropyrido[2,1-c]pyrazin-2-yl)-N-[5-[(3,5-dimethoxyphenyl)methoxy]-2H-pyrazol-3-yl]pyrimidine-5-carboxamide]
0.98	COc1cc(CCc2cc(NC(=O)c3ccc(N4CCN5CCCC5C4)s3)[nH]n2)cc(OC)c1 (stereo not drawn) [Example 120, 5-(3,4,6,7,8,8a-hexahydro-1H-pyrrolo[2,1-c]pyrazin-2-yl)-N-[5-[2-(3,5-dimethoxyphenyl)ethyl]-2H-pyrazol-3-yl]thiophene-2-carboxamide]
0.79	COc1cc(COc2cc(NC(=O)c3ccc(N4CCN5CCCC5C4)s3)[nH]n2)cc(OC)c1 (stereo not drawn) [Example 121, 5-(3,4,6,7,8,8a-hexahydro-1H-pyrrolo[2,1-c]pyrazin-2-yl)-N-[5-[(3,5-dimethoxyphenyl)methoxy]-2H-pyrazol-3-yl]thiophene-2-carboxamide]
1.3	COc1cc(COc2cc(NC(=O)c3cnc(N4CCN5CCCC5C4)cn3)[nH]n2)cc(OC)c1 (stereo not drawn) [Example 122, 5-(3,4,6,7,8,8a-Hexahydro-1H-pyrrolo[2,1-c]pyrazin-2-yl)-N-[5-[(3,5-dimethoxyphenyl)methoxy]-2H-pyrazol-3-yl]pyrazine-2-carboxamide]
2.2	COc1cc(CCc2cc(NC(=O)c3cnc(N4CCN(C)C(C)C4)cn3)[nH]n2)cc(OC)c1 (stereo not drawn) [Example 123, N-[5-[2-(3,5-Dimethoxyphenyl)ethyl]-2H-pyrazol-3-yl]-5-(3,4-dimethylpiperazin-1-yl)pyrazine-2-carboxamide]
1.5	COc1cc(COc2cc(NC(=O)c3cnc(N4CCN(C)C(C)C4)cn3)[nH]n2)cc(OC)c1 (stereo not drawn) [Example 124, N-[5-[(3,5-Dimethoxyphenyl)methoxy]-2H-pyrazol-3-yl]-5-(3,4-dimethylpiperazin-1-yl)pyrazine-2-carboxamide]
1.7	COc1cc(CCc2cc(NC(=O)c3cnc(N4C[C@@H](C)N(C)[C@@H](C)C4)cn3)[nH]n2)cc(OC)c1 [Example 125, N-[5-[2-(3,5-dimethoxyphenyl)ethyl]-2H-pyrazol-3-yl]-5-[(3R,5S)-3,4,5-trimethylpiperazin-1-yl]pyrazine-2-carboxamide]
3.6	COc1cc(CCc2cc(NC(=O)c3cnc(N4CCN(C5CC5)CC4)nc3)[nH]n2)cc(OC)c1 [Example 126, 2-(4-cyclopropylpiperazin-1-yl)-N-[5-[2-(3,5-dimethoxyphenyl)ethyl]-2H-pyrazol-3-yl]pyrimidine-5-carboxamide]
2.9	COc1cc(CCc2cc(NC(=O)c3cnc(N4CCN5CCCCC5C4)nc3)[nH]n2)cc(OC)c1 (stereo not drawn) [Example 127, 2-(1,3,4,6,7,8,9,9a-octahydropyrido[2,1-c]pyrazin-2-yl)-N-[5-[2-(3,5-dimethoxyphenyl)ethyl]-2H-pyrazol-3-yl]pyrimidine-5-carboxamide]
3	COc1cc(CCc2cc(NC(=O)c3cnc(N4CCN5CCCC5C4)nc3)[nH]n2)cc(OC)c1 (stereo not drawn) [Example 128, 2-(3,4,6,7,8,8a-hexahydro-1H-pyrrolo[2,1-c]pyrazin-2-yl)-N-[5-[2-(3,5-dimethoxyphenyl)ethyl]-2H-pyrazol-3-yl]pyrimidine-5-carboxamide]
3.5	COc1cc(CCc2cc(NC(=O)c3cnc(N4C[C@@H](C)N(CC#N)[C@@H](C)C4)cn3)[nH]n2)cc(OC)c1 [Example 129, 5-[(3R,5S)-4-(cyanomethyl)-3,5-dimethylpiperazin-1-yl]-N-[5-[2-(3,5-dimethoxyphenyl)ethyl]-2H-pyrazol-3-yl]pyrazine-2-carboxamide]
0.59	COc1cc(COc2cc(NC(=O)c3cnc(N4C[C@@H](C)N(C)[C@@H](C)C4)cn3)[nH]n2)cc(OC)c1 [Example 130, N-[5-[(3,5-dimethoxyphenyl)methoxy]-2H-pyrazol-3-yl]-5-[(3R,5S)-3,4,5-trimethylpiperazin-1-yl]pyrazine-2-carboxamide]
3.5	COc1cc(COc2cc(NC(=O)c3cnc(N4C[C@@H](C)N(CC#N)[C@@H](C)C4)cn3)[nH]n2)cc(OC)c1 [Example 131, 5-[(3R,5S)-4-(cyanomethyl)-3,5-dimethylpiperazin-1-yl]-N-[5-[(3,5-dimethoxyphenyl)methoxy]-2H-pyrazol-3-yl]pyrazine-2-carboxamide]
